Tested on: New Zealand White rabbits
Assay: Intraocular pressure (IOP) in rabbits, topical dosing four times daily
Type: in vivo
Procedure: Seventy-five rabbits underwent two weeks of IOP training to condition them for IOP measurement. IOP was determined for both eyes of each animal using a Medtronic Solan, Model 30 classic pneumatonometer. Proparacaine hydrochloride 0.5% (1 drop) was delivered to each eye prior to IOP measurement. A two-point diurnal curve was established: IOP was recorded on Monday, Wednesday, and Friday of each week, at 8 a.m. and 12 p.m., with a ±1 hour range for each of these times. The time of the measurements was recorded.
On Days 1-31, animals received daily topical doses of the appropriate test article into the right eye. Animals were dosed four times per day, with doses administered 2 hours apart. Doses were administered using a calibrated 50-μL pipette. The eyelids were held close for 10 seconds immediately following dosing. The time of each dose administration was recorded.
Intraocular pressure (“IOP”) was determined for both eyes of each animal on Days 3, 5, 10, 12, 16, 18, 22, 24, 26, 30, and 32. IOP was evaluated with a Medtronic Solan, Model 30 classic pneumatonometer. Proparacaine hydrochloride 0.5% (1 drop) was delivered to each eye prior to IOP measurement. IOP was measured on Monday, Wednesday, and Friday of each week. A two-point diurnal curve was established: IOP was recorded at 8 a.m. and 12 p.m. on Day 3, and at 8 a.m. and 2 p.m. on later days, with a ±1 hour range for each of these times. The time of the measurements was recorded.
Descriptive statistics were prepared for IOP data of each treatment group (left and right eyes separately) at each measurement interval. The statistics included the number of observations (“N”), mean, standard deviation (“STD”), and standard error (“SEM”). Statistical analyses were conducted on IOP results using Statistical Analysis Systems (SAS Institute, Inc., Cary, N.C., V8.0). Parameters were evaluated using analysis of variance/GLM Procedure followed by Tukey's Standardized Range Test (Tukey, 1985) for post hoc comparisons of group means. The level of significance was set at a probability of p<0.05 for all statistical procedures. Group IOP means were compared at each interval, with left and right eyes compared separately.

## Cc1ccc2c(NCC(O)(CC(C)(C)c3cc(F)cc4c3OCC4)C(F)(F)F)cccc2n1 (stereo not drawn)
Treated right eyes, A.M. readings, Day 24, 5 mg/g (Group C)
  Intraocular Pressure (MEAN): 23.8 mmHg
Treated right eyes, A.M. readings, Day 24, 10 mg/g (Group B)
  Intraocular Pressure (MEAN): 21.2 mmHg
Treated right eyes, A.M. readings, Day 26, 1 mg/g (Group D)
  Intraocular Pressure (MEAN): 23.1 mmHg
Treated right eyes, A.M. readings, Day 26, 5 mg/g (Group C)
  Intraocular Pressure (MEAN): 22.1 mmHg
Treated right eyes, A.M. readings, Day 26, 10 mg/g (Group B)
  Intraocular Pressure (MEAN): 21.8 mmHg
Treated right eyes, A.M. readings, Day 30, 1 mg/g (Group D)
  Intraocular Pressure (MEAN): 24.2 mmHg
Treated right eyes, A.M. readings, Day 30, 5 mg/g (Group C)
  Intraocular Pressure (MEAN): 22.9 mmHg
Treated right eyes, A.M. readings, Day 30, 10 mg/g (Group B)
  Intraocular Pressure (MEAN): 22.7 mmHg
Treated right eyes, A.M. readings, Day 32, 1 mg/g (Group D)
  Intraocular Pressure (MEAN): 24.9 mmHg
Treated right eyes, A.M. readings, Day 32, 5 mg/g (Group C)
  Intraocular Pressure (MEAN): 23.4 mmHg
Treated right eyes, A.M. readings, Day 32, 10 mg/g (Group B)
  Intraocular Pressure (MEAN): 23.9 mmHg
Treated right eyes, A.M. readings, Pre-Study, 1 mg/g (Group D)
  Intraocular Pressure (MEAN): 24.4 mmHg
Treated right eyes, A.M. readings, Pre-Study, 5 mg/g (Group C)
  Intraocular Pressure (MEAN): 24.8 mmHg
Treated right eyes, A.M. readings, Pre-Study, 10 mg/g (Group B)
  Intraocular Pressure (MEAN): 24.0 mmHg
Treated right eyes, P.M. readings, Day 3, 1 mg/g (Group D)
  Intraocular Pressure (MEAN): 24.7 mmHg
Treated right eyes, P.M. readings, Day 3, 5 mg/g (Group C)
  Intraocular Pressure (MEAN): 23.6 mmHg
Treated right eyes, P.M. readings, Day 3, 10 mg/g (Group B)
  Intraocular Pressure (MEAN): 23.1 mmHg
Treated right eyes, P.M. readings, Day 5, 1 mg/g (Group D)
  Intraocular Pressure (MEAN): 25.5 mmHg
Treated right eyes, P.M. readings, Day 5, 5 mg/g (Group C)
  Intraocular Pressure (MEAN): 24.8 mmHg
Treated right eyes, P.M. readings, Day 5, 10 mg/g (Group B)
  Intraocular Pressure (MEAN): 25.7 mmHg
Treated right eyes, P.M. readings, Day 10, 1 mg/g (Group D)
  Intraocular Pressure (MEAN): 25.3 mmHg
Treated right eyes, P.M. readings, Day 10, 5 mg/g (Group C)
  Intraocular Pressure (MEAN): 25.6 mmHg
Treated right eyes, P.M. readings, Day 10, 10 mg/g (Group B)
  Intraocular Pressure (MEAN): 24.3 mmHg
Treated right eyes, P.M. readings, Day 12, 1 mg/g (Group D)
  Intraocular Pressure (MEAN): 24.0 mmHg
Treated right eyes, P.M. readings, Day 12, 5 mg/g (Group C)
  Intraocular Pressure (MEAN): 23.4 mmHg
Treated right eyes, P.M. readings, Day 12, 10 mg/g (Group B)
  Intraocular Pressure (MEAN): 23.8 mmHg
Treated right eyes, P.M. readings, Day 16, 1 mg/g (Group D)
  Intraocular Pressure (MEAN): 22.0 mmHg
Treated right eyes, P.M. readings, Day 16, 5 mg/g (Group C)
  Intraocular Pressure (MEAN): 21.4 mmHg
Treated right eyes, P.M. readings, Day 16, 10 mg/g (Group B)
  Intraocular Pressure (MEAN): 21.6 mmHg
Treated right eyes, P.M. readings, Day 18, 1 mg/g (Group D)
  Intraocular Pressure (MEAN): 23.1 mmHg
Treated right eyes, P.M. readings, Day 18, 5 mg/g (Group C)
  Intraocular Pressure (MEAN): 21.6 mmHg
Treated right eyes, P.M. readings, Day 18, 10 mg/g (Group B)
  Intraocular Pressure (MEAN): 22.5 mmHg
Treated right eyes, P.M. readings, Day 22, 1 mg/g (Group D)
  Intraocular Pressure (MEAN): 22.5 mmHg
Treated right eyes, P.M. readings, Day 22, 5 mg/g (Group C)
  Intraocular Pressure (MEAN): 22.8 mmHg
Treated right eyes, P.M. readings, Day 22, 10 mg/g (Group B)
  Intraocular Pressure (MEAN): 23.1 mmHg
Treated right eyes, P.M. readings, Day 24, 1 mg/g (Group D)
  Intraocular Pressure (MEAN): 23.6 mmHg
Treated right eyes, P.M. readings, Day 24, 5 mg/g (Group C)
  Intraocular Pressure (MEAN): 23.4 mmHg
Treated right eyes, P.M. readings, Day 24, 10 mg/g (Group B)
  Intraocular Pressure (MEAN): 22.8 mmHg
Treated right eyes, P.M. readings, Day 26, 1 mg/g (Group D)
  Intraocular Pressure (MEAN): 22.6 mmHg
Treated right eyes, P.M. readings, Day 26, 5 mg/g (Group C)
  Intraocular Pressure (MEAN): 22.2 mmHg
Treated right eyes, P.M. readings, Day 26, 10 mg/g (Group B)
  Intraocular Pressure (MEAN): 20.9 mmHg
Treated right eyes, P.M. readings, Day 30, 10 mg/g (Group B)
  Intraocular Pressure (MEAN): 22.4 mmHg
Untreated left eyes, P.M. readings, Day 3, 1 mg/g (Group D)
  Intraocular Pressure (MEAN): 25.0 mmHg
Untreated left eyes, P.M. readings, Day 3, 5 mg/g (Group C)
  Intraocular Pressure (MEAN): 23.9 mmHg
Untreated left eyes, P.M. readings, Day 3, 10 mg/g (Group B)
  Intraocular Pressure (MEAN): 23.3 mmHg
Untreated left eyes, P.M. readings, Day 5, 1 mg/g (Group D)
  Intraocular Pressure (MEAN): 24.7 mmHg
Untreated left eyes, P.M. readings, Day 5, 5 mg/g (Group C)
  Intraocular Pressure (MEAN): 24.8 mmHg
Untreated left eyes, P.M. readings, Day 5, 10 mg/g (Group B)
  Intraocular Pressure (MEAN): 25.2 mmHg
Untreated left eyes, P.M. readings, Day 10, 1 mg/g (Group D)
  Intraocular Pressure (MEAN): 24.9 mmHg
Untreated left eyes, P.M. readings, Day 10, 5 mg/g (Group C)
  Intraocular Pressure (MEAN): 24.6 mmHg
Untreated left eyes, P.M. readings, Day 10, 10 mg/g (Group B)
  Intraocular Pressure (MEAN): 23.5 mmHg
Untreated left eyes, P.M. readings, Day 12, 1 mg/g (Group D)
  Intraocular Pressure (MEAN): 23.7 mmHg
Untreated left eyes, P.M. readings, Day 12, 5 mg/g (Group C)
  Intraocular Pressure (MEAN): 23.3 mmHg
Untreated left eyes, P.M. readings, Day 12, 10 mg/g (Group B)
  Intraocular Pressure (MEAN): 24.1 mmHg
Untreated left eyes, P.M. readings, Day 16, 1 mg/g (Group D)
  Intraocular Pressure (MEAN): 21.9 mmHg
Untreated left eyes, P.M. readings, Day 16, 5 mg/g (Group C)
  Intraocular Pressure (MEAN): 20.4 mmHg
Untreated left eyes, P.M. readings, Day 16, 10 mg/g (Group B)
  Intraocular Pressure (MEAN): 21.4 mmHg
Untreated left eyes, P.M. readings, Day 18, 1 mg/g (Group D)
  Intraocular Pressure (MEAN): 22.7 mmHg
Untreated left eyes, P.M. readings, Day 18, 5 mg/g (Group C)
  Intraocular Pressure (MEAN): 21.9 mmHg
Untreated left eyes, P.M. readings, Day 18, 10 mg/g (Group B)
  Intraocular Pressure (MEAN): 22.1 mmHg
Untreated left eyes, P.M. readings, Day 22, 1 mg/g (Group D)
  Intraocular Pressure (MEAN): 22.1 mmHg
Untreated left eyes, P.M. readings, Day 22, 5 mg/g (Group C)
  Intraocular Pressure (MEAN): 22.1 mmHg
Untreated left eyes, P.M. readings, Day 22, 10 mg/g (Group B)
  Intraocular Pressure (MEAN): 22.6 mmHg
Untreated left eyes, P.M. readings, Day 24, 1 mg/g (Group D)
  Intraocular Pressure (MEAN): 22.9 mmHg
Untreated left eyes, P.M. readings, Day 24, 5 mg/g (Group C)
  Intraocular Pressure (MEAN): 22.2 mmHg
Untreated left eyes, P.M. readings, Day 24, 10 mg/g (Group B)
  Intraocular Pressure (MEAN): 22.8 mmHg
Untreated left eyes, P.M. readings, Day 26, 1 mg/g (Group D)
  Intraocular Pressure (MEAN): 22.1 mmHg
Untreated left eyes, P.M. readings, Day 26, 5 mg/g (Group C)
  Intraocular Pressure (MEAN): 22.3 mmHg
Untreated left eyes, P.M. readings, Day 26, 10 mg/g (Group B)
  Intraocular Pressure (MEAN): 21.4 mmHg
Untreated left eyes, P.M. readings, Day 30, 1 mg/g (Group D)
  Intraocular Pressure (MEAN): 21.3 mmHg
Untreated left eyes, P.M. readings, Day 30, 5 mg/g (Group C)
  Intraocular Pressure (MEAN): 20.9 mmHg
Untreated left eyes, P.M. readings, Day 30, 10 mg/g (Group B)
  Intraocular Pressure (MEAN): 21.7 mmHg
Untreated left eyes, P.M. readings, Day 32, 1 mg/g (Group D)
  Intraocular Pressure (MEAN): 21.9 mmHg
Untreated left eyes, P.M. readings, Day 32, 5 mg/g (Group C)
  Intraocular Pressure (MEAN): 21.5 mmHg
Untreated left eyes, P.M. readings, Day 32, 10 mg/g (Group B)
  Intraocular Pressure (MEAN): 22.6 mmHg
Untreated left eyes, P.M. readings, Pre-Study, 1 mg/g (Group D)
  Intraocular Pressure (MEAN): 24.2 mmHg
Untreated left eyes, P.M. readings, Pre-Study, 5 mg/g (Group C)
  Intraocular Pressure (MEAN): 24.4 mmHg
Untreated left eyes, P.M. readings, Pre-Study, 10 mg/g (Group B)
  Intraocular Pressure (MEAN): 23.9 mmHg
